According to patent US20240050560A1, “SELF-SUSTAINED RELEASE IMMUNE ADJUVANT SUSPENSION, PREPARATION METHOD THEREFOR, AND USE THEREOF” (priority 2020, published 2024):
Structures can show the parent of a compound that is named as a salt. Values belong to the molecule of their own block, whether it stands above or below them.

Experiments:
mouse colon CT26 tumor = assay: Oxaliplatin chemotherapy combined with imiquimod micro-formulation, in-situ and distal tumor growth; format: in vivo, mice; conditions: intratumoral injection, chemotherapeutic alone
Method: The length and width of the tumor in mice were regularly measured, and the volume of tumor was calculated as follows: (length×(width) 2)/2.

[1] = Platinum in blood and organs (ICP-MS) after intratumoral oxaliplatin with or without imiquimod suspension; conditions: platinum in blood after intratumoral injection
Excerpt: Mice were inoculated with colon cancer (CT26) tumor cells on the back of the tumor in mice to establish a subcutaneous tumor model in mice.

[2] = system: colon cancer (CT26) tumors; assay: Oxaliplatin in combination with micron-sized imiquimod suspension, two-sided tumor model; format: in vivo, mice; conditions: Day 15 after treatment; 30 μL intratumoral; oxaliplatin 4 mg/mL, imiquimod 6 mg/mL
Method: Mice were inoculated with different amounts of colon cancer (CT26) tumors on both sides of the back in mice (the inoculated amount on the left side was ⅕ of that on the right side) to establish a subcutaneous two-sided tumor model, wherein the tumor on the right side was deemed an in-situ tumor, and that on the left right was deemed a distal tumor. Once the in-situ tumors reached a size of about 100 mm^3, the mice were randomly divided into 4 groups, which were treated respectively.
On Day 1 of the treatment, the in-situ tumor was administered by intratumoral injection, wherein the concentration of oxaliplatin was 4 mg/mL, and the concentration of imiquimod was 6 mg/mL. After administration, the tumor volume in mice was recorded to plotted a growth curve of ice.

tumor cells = assay: Micron-sized imiquimod suspension in combination with ethanol ablation, subcutaneous tumor model; format: in vivo, mice; conditions: imiquimod suspension 12 mg/mL peritumoral; absolute ethanol 30 μL intratumoral
Excerpt: First, a subcutaneous tumor model in mice was established. In particular, mice were inoculated with tumor cells on their back. Once the tumors grew to a volume of 100 mm^3, the mice were randomly divided into 5 groups with 5 mice in each group.
The mice were monitored for the changes in tumor volumes, and the curves of tumor growth were plotted.

[3] = 72 h after intratumoral injection, 6 mg/kg, CT26 mice
Method: Experimental method: Mice were transplanted with mouse colon cancer (CT26) tumor on their backs, and randomly divided to 3 groups with 3 mice in each group for the study of drug distribution behavior. • Group 1: The mice were intratumorally injected with the micromolecule imiquimod hydrochloride with an injection dose of 6 mg/kg; • Group 2: The mice were intratumorally injected with imiquimod nano-particles (with average particle size of about 100 nm) encapsulated with polylactic-glycolic acid copolymer (PLGA) with an injection dose of 6 mg/kg; and • Group 3: The mice were intratumorally injected with imiquimod microparticles (the present formulation) with an injection dose of 6 mg/kg.

in vivo [4] = conditions: mouse, whole blood, 6 mg/kg
Method: Water-insoluble R837 powder was prepared into microparticles with a particle size of 1-3 microns, which were intratumorally injected and then monitored for the pharmacokinetics and intratumoral retention time.
Experimental method: Mice were transplanted with mouse colon cancer (CT26) tumor on their backs, and randomly divided to 3 groups with 3 mice in each group for the pharmacokinetic study.
Group 1: The mice were intratumorally injected with micromolecule imiquimod hydrochloride with an injection dose of 6 mg/kg.
Group 2: The mice were intratumorally injected with imiquimod/PLGA nano-particles (with an average particle size of about 100 nm) with an injection dose of 6 mg/kg.
Group 3: The mice were intratumorally injected with imiquimod microparticles (the present formulation) with an injection dose of 6 mg/kg.

in vivo [5] = conditions: mouse, whole blood
Excerpt: Mice were inoculated with CT26 tumor cells on their back to establish a CT26 subcutaneous tumor model of mice. Mice with the same tumor size were equally divided to 3 groups with 3 mice in each group.

SMILES: O=C1[O][Pt]2([NH][C@@H]3CCCC[C@H]3[NH]2)[O]C1=O [OXA, oxaliplatin]
Growth of distal tumors (FIG. 11) (mouse colon CT26 tumor): does not produce significant inhibitory effect
Growth of in-situ tumors (FIG. 10) (mouse colon CT26 tumor): can inhibit the growth of in-situ tumors
Tmax (H) [1]: 3 H
Tumor Inhibition Rate, Distant tumor [2]: 41.87%
Tumor Inhibition Rate, In-situ tumor [2]: 69.56%

SMILES: CCO [absolute ethanol, ethanol]
Tumor growth / tumor volumes (FIG. 14) (tumor cells): not highly different from those of the control group

Retention of imiquimod in tumor and main organs (FIG. 3) [3]: extremely low overall retention
Blood concentration of drug (at 48 h and 72 h after intratumoral injection 6 mg/kg): below the limit of detection
Average Retention Time (intratumoral injection 6 mg/kg, CT26 mice, average of 3): 11 h
half-life (in vivo [4]): 12 h
AUC (in vivo [5]): 0.14 µg·h/mL
Cmax (in vivo [5]): 0.0174 µg/mL
Tmax (in vivo [5]): 0.5 h
half-life (in vivo [5]): 7.7 h
SMILES: CC(C)Cn1cnc2c(N)nc3ccccc3c21 [Micromolecule imiquimod hydrochloride, imiquimod hydrochloride]
